Values of other authors as cited in publication PMC6318333, “A chemical biology toolbox to study protein methyltransferases and epigenetic signaling” (Nature Communications, 2019).

Molecular target: T1, SMYD3 (Homo sapiens, UniProt Q9H7B4)
T1 sequence (Q9H7B4 1-428): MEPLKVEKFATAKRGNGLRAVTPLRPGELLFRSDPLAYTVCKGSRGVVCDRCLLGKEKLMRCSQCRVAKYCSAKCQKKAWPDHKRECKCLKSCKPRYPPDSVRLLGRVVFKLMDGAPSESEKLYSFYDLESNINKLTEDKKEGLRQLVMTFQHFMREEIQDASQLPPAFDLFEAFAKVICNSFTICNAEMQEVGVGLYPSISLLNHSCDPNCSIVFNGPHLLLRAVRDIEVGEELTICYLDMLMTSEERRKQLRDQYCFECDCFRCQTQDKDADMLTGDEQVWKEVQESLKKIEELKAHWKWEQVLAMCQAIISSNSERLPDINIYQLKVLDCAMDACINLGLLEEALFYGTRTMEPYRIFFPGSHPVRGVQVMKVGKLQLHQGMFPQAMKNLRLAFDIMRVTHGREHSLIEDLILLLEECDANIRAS
Assay: biochemical methyltransferase assay with recombinant protein
Conditions: read-out: In vitro IC50 or Kd

## BAY-6035
  IC50: 88 nM
